In publication PMC3368886, “ATPase Cycle and DNA Unwinding Kinetics of RecG Helicase” (PLoS ONE, 2012):
pKi: −log10 of the molar value.

What was measured:
RecG = target: T1, RecG (Thermotoga maritima, UniProt Q9WY48); assay: Steady-state ATPase rate measurements with phosphate biosensor MDCC-PBP; assay type: biochemical; conditions: 10 µM ATP, varying inhibitor, 500 nM DNA junction (A40:B40), 20°C
T1 construct: made in house
T1 sequence (Q9WY48 1-780): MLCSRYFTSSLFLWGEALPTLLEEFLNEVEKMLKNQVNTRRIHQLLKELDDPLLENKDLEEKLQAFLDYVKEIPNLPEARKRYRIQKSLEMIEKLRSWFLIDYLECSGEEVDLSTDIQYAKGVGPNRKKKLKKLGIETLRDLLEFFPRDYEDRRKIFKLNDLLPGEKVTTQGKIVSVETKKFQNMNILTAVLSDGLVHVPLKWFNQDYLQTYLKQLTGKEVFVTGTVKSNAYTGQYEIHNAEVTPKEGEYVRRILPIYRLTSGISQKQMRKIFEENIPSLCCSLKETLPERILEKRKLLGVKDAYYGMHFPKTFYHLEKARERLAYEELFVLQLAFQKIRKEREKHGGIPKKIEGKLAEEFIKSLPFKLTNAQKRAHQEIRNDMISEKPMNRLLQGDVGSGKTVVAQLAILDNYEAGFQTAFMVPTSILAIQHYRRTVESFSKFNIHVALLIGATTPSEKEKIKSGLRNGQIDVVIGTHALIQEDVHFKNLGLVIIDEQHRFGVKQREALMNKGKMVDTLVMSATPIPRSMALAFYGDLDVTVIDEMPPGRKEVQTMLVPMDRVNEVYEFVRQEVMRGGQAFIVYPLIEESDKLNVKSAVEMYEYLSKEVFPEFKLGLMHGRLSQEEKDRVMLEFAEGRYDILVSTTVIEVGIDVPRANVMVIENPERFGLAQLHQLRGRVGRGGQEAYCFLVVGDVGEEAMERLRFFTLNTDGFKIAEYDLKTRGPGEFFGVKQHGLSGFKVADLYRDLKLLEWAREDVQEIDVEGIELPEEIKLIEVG
Source text: Steady-state measurements were made to gain an overall assessment of the reaction and the affinities of various nucleotides before investigating the individual steps in the ATPase cycle. A two-strand DNA junction, which contains two 20-bp regions of complementary and non-complementary sequences (A40:B40 Figure 1 and Table S1), was used in all these measurements. This forms a Y-shape structure and RecG translocates one single-stranded arm, but then remains bound to the end of the junction still hydrolyzing ATP [10].
All reactions with RecG and DNA were done at 20°C in a buffer containing 50 mM Tris⋅acetate (pH 8.0), 30 mM potassium acetate, 3 mM magnesium acetate and 1 mM DTT. ATPase measurements using MDCC-PBP were taken in the presence of a Pi mop, as described above. Steady-state ATPase measurements were taken in a solution (60 µl) at 20°C, containing 10 nM RecG, 500 nM DNA junction (A40∶B40, see Table S1) and 10 µM MDCC-PBP with varying nucleotide concentrations as substrate or inhibitor [23].

RecG⋅DNA(A40:B40) [1] = target: T2, RecG⋅DNA(A40:B40) (Thermotoga maritima, UniProt Q9WY48); assay: Pi release with excess ATP, global fit to ATPase cycle model; assay type: biochemical; conditions: fixed to be consistent with K i for ADP
T2 construct: made in house
T2 sequence (Q9WY48 1-780): T1 sequence (Q9WY48 1-780)
Procedure: The rate of Pi release was measured after mixing RecG⋅DNA with excess ATP, using the phosphate biosensor, in the stopped-flow apparatus (Figure 6A). […] Both phases are dependent on ATP concentration. The lag decreased, while the rate of the linear phase increased with greater concentrations of ATP. The lag is due to the steps prior to Pi release, namely ATP binding and cleavage. […] Such a burst phase would result from the relatively fast Pi release of the initial cycle before the Pi release of subsequent cycles was limited by slow ADP release.
(§1) Figure 6 ATPase cycle measurements with unmodified nucleotides. (A) Phosphate measurements at different ATP concentrations. 0.5 µM RecG, premixed with 2.5 µM DNA (A40:B40), was then mixed in the stopped-flow apparatus with ATP at the micromolar concentrations shown, in the presence of 10 µM MDCC-PBP. (B) Best fit time courses of the Pi release, based upon a model of the ATPase cycle, as described in the text. Curves were obtained by glogal fitting the curves at different concentrations, using Global kinetic Explorer. Note that in comparison, the experimental time courses show a small transient of Pi at times <100 ms. This is likely to be due to free Pi and this behavior, overlaying a lag, has been observed previously in multi-turnover measurements. (C) ADP Release kinetics. 10 µM RecG⋅DNA (A40∶B40) was pre-bound with 10 µM ADP before mixing with an excess of mantADP (20 µM): these concentrations are final in the mixing chamber. The increase in fluorescence was fitted to single exponential giving the dissociation rate constant of 11.4 (±2.2) s^−1. Rate constants were independent of mantADP concentration in the range of 20–80 µM.
A scheme of the ATPase cycle (Figure 2) was used to simulate the data to assess the individual rate constants. […] The simulated traces (Figure 6B) were obtained from a global fit to the experimental data. This was done by allowing only the rate constants that have maximum influence on the curve shapes to vary. Cleavage and Pi release were assumed to be irreversible. For the fit, Pi release was fixed at 100 s^–1, ADP release at 12.5 s^–1, as the fitting was relatively insensitive to changes in these constants. […] The resulting best fit gave rate constants for ATP binding as 0.65 (±0.02) µM^−1s^−1, dissociation of ATP as 10.0 (±0.6) s^−1, cleavage as 7.1 (±0.1) s^−1. The fit gave a cleavage rate constant similar to the value of k cat from the steady-state analysis (Table 1a). The rate constant for ADP release may be only slightly larger than that of cleavage step.
Data were fitted to theoretical equations using the stopped-flow software or Grafit. Kinetic simulations were performed using Berkeley Madonna (Version 8.3, University of California at Berkeley) and using Global Kinetic Explorer (Kintek). […]

RecG⋅DNA(A40:B40) [2] = target: T2, RecG⋅DNA(A40:B40); assay: ADP dissociation kinetics by displacement with excess mantADP; assay type: binding
Procedure: as §1, with “10 µM RecG⋅DNA (A40∶B40) was pre-bound with 10 µM ADP before mixing with an excess of mantADP (20 µM): these concentrations are final in the mixing chamber.” left out, “Rate constants were independent of mantADP concentration in the range of 20–80 µM.” left out
A direct measurement of ADP dissociation kinetics was possible because of its relatively tight binding to RecG, which allowed quantitative formation of the ADP complex. […] The rate constant for dissociation was determined from a single exponential fit as 11.4 (±2) s^−1 (Figure 6C). This value fits well with the model whereby the dissociation rate constant is calculated as ≥12.5 s^−1.

Nc1ncnc2c1ncn2[C@@H]1O[C@H](COP(=O)(O)OP(=O)(O)O)[C@@H](O)[C@H]1O [ADP]
pKi (RecG): 5.14
ADP binding rate constant in the model (RecG⋅DNA(A40:B40) [1]): 1.7 µM^−1s^–1
ADP dissociation rate constant (RecG⋅DNA(A40:B40) [2]; 10 µM RecG⋅DNA pre-bound with 10 µM ADP, mixed with 20 µM mantADP): 11.4 (±2.2) s^−1
estimated ADP association rate constant (RecG⋅DNA(A40:B40) [2]; from dissociation rate constant and K i): 1.6e+06 M⁻¹ s⁻¹
